According to patent US20250177384A1, “CHROMANOL COMPOUNDS FOR TREATMENT OR PROPHYLAXIS OF AGEING-ASSOCIATED DISORDERS” (Sulfateq B.V., priority 2022, published 2025):

Columns and labels:
[1] = system: W1118 flies; assay: Drosophila lifespan with compound added to the food; format: in vivo; conditions: for survival of flies versus controls: higher doses of 10, 100, 1000 μM in food, from larvae state until death, FIG. 1, FIG. 2; for lifespan of Drosophila: treatment via food
Protocol: […] flies were bred and housed at 25° C. with a 12 h:12 h light/dark-cycle. Flies were kept in vials containing approximately 5 mL of Bloomington food consisting of sucrose, yeast suspension, agar, […] and fresh yeast. Flies kept as a stock were flipped to fresh vials weekly. Food was stored at 18° C. and warmed at room temperature before use. SUL109 and SUL121 were used to assess the effect of chromanol compounds on the lifespan of the fly stocks. The compounds were independently tested. Either SUL109 or SUL121 were added to the food to a final concentration of 10 μM, 100 μM and 1000 μM. […] flies were anesthetized in small groups using CO2. Subsequently, flies were collected at a density of […] per tube. At day 10 and 11 eclosing adults were anesthetized and housed at a density of 20 males and females per tube. Ten vials were used per study condition (total of 100 males and 100 females). During the lifespan, flies were transferred onto new vials containing fresh food 3 times a week, and the number and sex of dead flies was recorded.

[2] = system: Ercc1-deficient mouse models; assay: Persistent DNA damage in Ercc1-deficient mouse models; format: in vivo; conditions: no method or data given
[3] = system: Ercc1−/− (EC-KO) mice; assay: Endothelium-dependent relaxation of thoracic aorta segments (wire-myograph) after chronic treatment; format: in vivo
Protocol: (§1) EC-KO mice and corresponding littermates (LM) received either SUL138 treated (30 mg SUL138/kg BW/day) or vehicle treated (0.015% [v/v] ethanol) chow for 8 weeks (14-22 weeks of age).
(§2) Segments of thoracic aorta were isolated and mounted in wire-myograph containing Krebs Henseleit buffer (at 37° C., oxygenated with 95% O2 and 5% CO2) to assess endothelium-dependent (ED) relaxation.
Contraction of the thoracic aorta isolates was induced with 100 mM KCl (final concentration) to evaluate vessel viability.
(§3) A stable synthetic analog of the endoperoxide prostaglandin PGH2, namely U46619, was used for pre-constriction. Thoracic aorta segments were washed and subsequently pre-constricted with U46619 (30-60 nM final concentration; 75-100% of the response to 100 mM KCl), followed by a dose response curve with ED vasodilator acetylcholine (ACh) (10^−9-10^−5 M final concentration).
To evaluate the contribution of different pathways to vasodilator response, segments were incubated with inhibitors for 15 minutes prior to pre-constriction with U46619. L-NAME (10^−4 M) was added to assess nitric oxide (NO) contribution to vasodilator response. L-NAME, apamin (100 nM) and TRAM-34 (10 μM) were added to assess ED hyperpolarization factor (EDHF) contribution to vasodilator response.

[4] = system: thoracic aorta segments of EC-KO mice; assay: Acute effect on endothelium-dependent relaxation (pre-incubation of aorta segments); conditions: pre-incubation 100 μM for 30 minutes
Protocol: as §2, §3
The acute effect of SUL138 was evaluated by pre-incubating with 100 μM for 30 minutes.

[5] = system: Ercc1−/− (EC-KO) mice; assay: Renal function: urine creatinine, urine albumin, plasma creatinine after chronic treatment; format: in vivo
Protocol: as §1
At the age of 21 weeks, animals were put in metabolic cages. After 10 h of acclimatization, 24 h urine was collected. At the age of 22 weeks, mice were euthanized, urine, blood plasma and tissue were collected.
[…] levels in urine were measured in the samples collected at the age of 21 weeks and at the time euthanasia (22 weeks). QuantiChrom Creatinine Assay Kit (1:2 sample dilution) was used according to manufacturer's instructions.
Albumin levels in urine were measured in the samples collected at the time euthanasia (22 weeks). Mouse albumin ELISA kit ab108792 (1:400 sample dilution) was used according to manufacturer's instructions.
Blood plasma creatinine was measured in the samples collected at the time euthanasia (22 weeks). […]. QuantiChrom Creatinine Assay Kit […] was used according to manufacturer's instructions.

[6] = system: accelerated aging animal models; conditions: chronic treatment; cited from earlier work

## Cc1c(C)c2c(c(C)c1O)CCC(C)(C(=O)N1CCN(CCO)CC1)O2 (stereo not drawn) [SUL109, (6-hydroxy-2,5,7,8-tetramethylchroman-2-yl)(4-(2-hydroxyethyl)piperazin-1-yl)methanone]
[1]
  survival of flies versus controls: better survival than the controls
  lifespan of Drosophila: increased lifespan

## Cc1c(C)c2c(c(C)c1O)CCC(C)(C(=O)N1CCNCC1)O2 (stereo not drawn) [SUL121, (6-hydroxy-2,5,7,8-tetramethylchroman-2yl)(piperazin-1-yl)methanone]
[1]
  survival of flies versus controls: better survival than the controls
  lifespan of Drosophila: increased lifespan

## Cc1c(C)c2c(c(C)c1O)CC[C@@](C)(C(=O)N1CCN(CCO)CC1)O2 [SUL138, S-(6-hydroxy-2,5,7,8-tetramethylchroman-2-yl)(4-(2-hydroxyethyl)piperazin-1-yl)methanone]
[2]
  accumulation of persistent DNA damage: attenuation of the accumulation of persistent DNA damage
[3]; chronic treatment 30 mg/kg BW/day in chow for 8 weeks, EC-KO mice, compared to LM control levels, FIG. 3
  ED relaxation (acetylcholine response after U46619 pre-constriction): restored ED relaxation
[3]; chronic treatment, EC-KO mice, L-NAME curve, FIG. 6
  pathway contribution to ACh response (EDHF-driven ED relaxation): increased EDHF-driven ED relaxation
[3]; chronic treatment, isolated tissue from Ercc1-deficient mouse models
  vascular function (summary): full preservation of vascular function through EDHF rescue
[4]
  ED relaxation after acute treatment: no effect on ED relaxation
[5]; EC-KO mice, 22 weeks, FIG. 8
  albumin/creatinine ratio in urine: significant improvement of albumin/creatinine ratios
[5]; EC-KO mice, 24 h urine at 21 weeks, FIG. 10
  creatinine filtration (creatinine in 24 h urine): significantly improved
[5]; EC-KO mice, urine at 22 weeks, FIG. 7
  creatinine filtration (urine creatinine): significantly improved creatinine filtration
[5]; Ercc1-deficient mouse models
  renal function (summary): protection of renal function

## CCCCc1nc(Cl)c(CO)n1Cc1ccc(-c2ccccc2-c2nn[nH]n2)cc1 [losartan]
[6]
  endothelial dependent relaxation / vasomotor (vasodilator) function: did not have a beneficial effect

## CCCc1nn(C)c2c(=O)[nH]c(-c3cc(S(=O)(=O)N4CCN(C)CC4)ccc3OCC)nc12 [sildenafil]
[6]
  endothelial dependent relaxation / vasomotor (vasodilator) function: not able to improve endothelial dependent relaxation
